Activity calls are given as the source filed them.
Key:
Cytochrome P450 3A4 = Cytochrome P450 3A4 (Homo sapiens, UniProt P08684); details: Potency;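 also: confirmatory qHTS run detecting inhibitors and substrates of CYP3A4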
[1] = inhibitors of Bluetongue virus cytopathic effect, confirmation, arbovirus, BSR cells (AID 1250); type: functional;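 also: protection from viral cytopathic effect measured as cell viability by ATP luminescence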
cells [2] = assay: cells
Major prion protein = Major prion protein (Homo sapiens, UniProt P04156); type: functional, cell-based
[3] = molecular target: T1, Type-1 angiotensin II receptor (Homo sapiens, UniProt P30556); assay: AT1 receptor antagonists, dose response, selectivity assay for APJ receptor antagonist project, cell-based, uHTS hits (AID 463214); type: functional;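 also: antagonist potency against angiotensin II stimulated AT1 response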
T1 sequence (P30556 whole entry): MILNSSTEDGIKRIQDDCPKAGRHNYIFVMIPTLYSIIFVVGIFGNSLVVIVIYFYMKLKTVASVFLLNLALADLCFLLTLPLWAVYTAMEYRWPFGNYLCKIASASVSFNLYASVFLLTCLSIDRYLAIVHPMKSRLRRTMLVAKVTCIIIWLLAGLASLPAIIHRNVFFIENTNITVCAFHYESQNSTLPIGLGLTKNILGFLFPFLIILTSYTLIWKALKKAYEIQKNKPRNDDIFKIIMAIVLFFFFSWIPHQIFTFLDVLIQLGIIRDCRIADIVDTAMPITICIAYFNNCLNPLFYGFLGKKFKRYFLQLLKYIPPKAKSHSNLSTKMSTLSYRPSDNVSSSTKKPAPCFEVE

Beta-galactosidase = Beta-galactosidase (Escherichia coli, UniProt Q8VNN2); assay: PubChem AID 485352; type: functional
[4] = HepG2 cell cytotoxicity, dose response, cytotoxicity control for Shn3 inhibitor project, CellTiter-Glo, cherry-picked (AID 624134); type: functional, cell-based
[5] = Shn3 3'UTR reporter inhibitors, dose response, cell-based, Clone20 osteoblasts, firefly luciferase, cherry-picked (AID 624132); type: functional;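 also: firefly luciferase luminescence from reporter carrying the Shn3 3'UTR in osteoblasts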
[6] = inhibitors of HIV Env-driven cell fusion, dose response, cherry-pick (AID 652057); type: functional, cell-based
[7] = ZM109 Env clade C HIV-1 fusion inhibitors, dose response, HeLa effector, CEM target cells, luciferase, cherry-pick (AID 652058); type: functional, cell-based
[8] = control 3'UTR Renilla luciferase suppression, dose response, counter-screen for Shn3 inhibitor project, cell-based, Clone20-Shn3RL, cherry-picked (AID 624133); type: functional
[9] = inhibitors of clade B AD8 Env fusion, dose response, cell-based, cherry-pick (AID 652062); type: functional;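 also: luciferase signal from cell-cell fusion driven by HIV-1 clade B AD8 Env; potency is for inhibitors of fusion seen as a drop in luminescence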
[10] = off-target signal loss in HeLa-CEM21 co-culture – HeLa F-luc CTL cells, cherry-picked, counter-screen for HIV-1 Env fusion inhibitor project, dose response (AID 652040); type: functional, cell-based;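 also: potency for signal decrease marking cytotoxic or nonspecific inhibition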
[11] = molecular target: T2, Ubiquitin-conjugating enzyme E2 N (Homo sapiens, UniProt P61088); type: functional;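 also: Dose-response confirmation in a TR-FRET assay detecting UBC13-driven polyubiquitin chain formation, inhibition measured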
T2 sequence (P61088 whole entry): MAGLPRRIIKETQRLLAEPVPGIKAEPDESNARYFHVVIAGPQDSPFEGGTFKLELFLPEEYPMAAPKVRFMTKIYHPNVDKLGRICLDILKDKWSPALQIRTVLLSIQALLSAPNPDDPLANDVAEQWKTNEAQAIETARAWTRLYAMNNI

cells [12] = type: functional
Leucine aminopeptidase = molecular target: T3, Leucine aminopeptidase (Plasmodium falciparum 3D7, UniProt Q8IL11); assay: P. falciparum M17LAP inhibitors, primary screen, biochemical, fluorogenic H-Leu-NHMec substrate, 1536-well (AID 1619); type: functional
T3 sequence (Q8IL11 whole entry): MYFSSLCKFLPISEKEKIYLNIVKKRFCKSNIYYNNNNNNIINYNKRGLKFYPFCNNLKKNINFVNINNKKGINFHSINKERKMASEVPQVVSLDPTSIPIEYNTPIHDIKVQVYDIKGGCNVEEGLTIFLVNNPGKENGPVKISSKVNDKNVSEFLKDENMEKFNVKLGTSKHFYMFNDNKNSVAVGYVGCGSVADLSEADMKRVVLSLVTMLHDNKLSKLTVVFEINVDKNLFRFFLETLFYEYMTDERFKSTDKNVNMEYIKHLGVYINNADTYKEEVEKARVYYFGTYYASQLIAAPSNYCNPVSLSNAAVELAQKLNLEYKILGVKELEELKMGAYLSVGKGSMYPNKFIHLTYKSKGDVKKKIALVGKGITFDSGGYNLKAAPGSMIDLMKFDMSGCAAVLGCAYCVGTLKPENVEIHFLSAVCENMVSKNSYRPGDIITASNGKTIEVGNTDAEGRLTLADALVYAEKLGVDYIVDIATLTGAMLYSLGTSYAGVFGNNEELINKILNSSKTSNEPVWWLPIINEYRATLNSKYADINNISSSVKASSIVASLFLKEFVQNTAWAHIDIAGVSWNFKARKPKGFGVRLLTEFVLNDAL

Streptococcus = assay: Group A Streptococcus viability loss, dose response, counter-screen for streptokinase expression inhibitor project, luminescence, BacTiterGlo (AID 1915); type: functional, organism-based;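 also: potency for reduction of bacterial viability or growth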
[13] = system: Streptococcus sp. 'group A'; assay: growth inhibition of control SK(-) GAS strain, dose response, counter-screen for streptokinase expression inhibitor project, luminescence, kanamycin, BacTiterGlo, confirmation (AID 1900); type: functional, organism-based
Streptokinase A = molecular target: T4, Streptokinase A (Streptococcus pyogenes serotype M1, UniProt P10520); assay: S. pyogenes streptokinase expression inhibitors, potency, dose response, plasminogen activation absorbance, OD405 (AID 1914); type: functional, Streptococcus pyogenes M1 GAS;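 also: secreted streptokinase activity via plasminogen activation per viability signal from cell pellet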
T4 sequence (P10520 whole entry): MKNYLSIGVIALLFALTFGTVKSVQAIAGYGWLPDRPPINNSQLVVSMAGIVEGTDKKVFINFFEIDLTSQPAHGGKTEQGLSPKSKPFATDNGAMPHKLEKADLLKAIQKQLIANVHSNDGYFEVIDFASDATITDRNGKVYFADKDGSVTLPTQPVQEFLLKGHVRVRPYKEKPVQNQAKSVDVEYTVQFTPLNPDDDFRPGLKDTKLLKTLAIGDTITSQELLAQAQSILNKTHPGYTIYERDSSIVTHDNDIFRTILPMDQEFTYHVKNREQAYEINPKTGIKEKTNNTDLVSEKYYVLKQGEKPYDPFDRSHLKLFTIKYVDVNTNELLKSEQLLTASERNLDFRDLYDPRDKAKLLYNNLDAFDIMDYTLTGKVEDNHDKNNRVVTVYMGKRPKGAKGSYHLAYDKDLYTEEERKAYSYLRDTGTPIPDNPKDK

[14] = P. falciparum Dd2 growth inhibitors, dose response, SYBR Green, cherry-picked samples (AID 1159567); type: functional, cell-based
[15] = P. falciparum ATP4 D1247Y mutant growth inhibitors, dose response, NITD609-resistant line, SYBR Green, dry powder (AID 1159571); type: functional, cell-based;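 also: parasites synchronized at ring stage by sorbitol before testing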
[16] = P. falciparum 3D7-ScDHODH growth inhibitors, dose response, SYBR Green, dry powder samples (AID 1159570); type: functional, cell-based;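 also: parasite growth measured after 72 hours of compound exposure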
[17] = HepG2 cell cytotoxicity, dose response, cytotoxicity control, plate reader, dry powder samples (AID 1159569); type: functional, cell-based;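 also: inhibitor potency with signal falling toward the positive control level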
[18] = P. falciparum Dd2 growth inhibitors, dose response, SYBR Green, dry powder samples (AID 1159566); type: functional, cell-based;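 also: potency for growth inhibition with lower SYBR green DNA signal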

With `CC(C)CCN1CCc2nc(-c3ccccc3)c3c(c2C1)COC(C)C3` (stereo unspecified) the AC50 (Cytochrome P450 3A4) was 3.16 µM (inconclusive).
With `CCOC(=O)c1nn(-c2cccc(Cl)c2)c2nc(Nc3ccccc3)cc(=O)n12` the IC50 [1] was 33 µM (active).
With `Cc1sc2ncnc(Sc3ccccc3C(=O)O)c2c1C` the IC50 (cells [2]) was > 138 µM (inactive) and the IC50 (Major prion protein) was 0.908 µM (active).
For `FC(F)(F)c1cccc(Sc2nc(-c3ccccc3)nnc2C(F)(F)F)c1`, the IC50 [3] was 21.4 µM (not active) and the EC50 (Beta-galactosidase) was > 40 µM (inactive).
In the case of `SC1=NCCc2ccccc2C1c1ccccc1Cl` (stereo unspecified), the IC50 [3] is reported as 13.8 µM (active) and the EC50 (Beta-galactosidase) is reported as > 40 µM (inactive).
In the case of `CCOc1ccc(C2C(C#N)=C(N)SC(N)=C2C#N)cc1OCC`, the IC50 (cells [2]) is reported as > 138 µM (inactive) and the IC50 (Major prion protein) is reported as 2.32 µM (active).
With `CCC1(C)Cc2ccccc2-c2[nH]c(=S)[nH]c(=O)c21` (stereo unspecified) the IC50 (Major prion protein) was 2.93 µM (active).
For `CCC1(C)Cc2ccccc2-c2nc(S)nc(O)c21` (stereo unspecified), the IC50 (cells [2]) was > 138 µM (inactive).
In the case of `FC(F)(F)c1ccc(CN2C[C@@H]3C(c4ccccc4)C4(c5ccccc5)CC3(C4)[C@H]2c2ccccc2)cc1` (stereo partly specified), the AC50 (Cytochrome P450 3A4) is reported as 15.8 µM (inconclusive).
For `CC(=O)Nc1ccc(NC(=O)CCC(=O)OCC(=O)c2ccc(C)c([N+](=O)[O-])c2)cc1`, the IC50 [3] was > 40 µM (not active) and the EC50 (Beta-galactosidase) was > 40 µM (inactive).
In the case of `O=C(c1ccccc1)N1CCN(c2ncnc3sc4c(c23)CCC4)CC1`, the AC50 [4] is reported as 48 µM (active), the AC50 [5] is reported as 4.14 µM (active) and the AC50 [6] is reported as 28.7 µM (active). The AC50 [7] was 41.4 µM (active) and the AC50 [8] was 4.25 µM (active).
In the case of `COc1ccc([C@@H]2[C@@H]3C(=O)N(C(C)(C)C)C(=O)[C@@H]3[C@]3(CC(C)C)C(=O)N(c4ccc(C(F)(F)F)cc4)C(=O)N23)cc1`, the AC50 [9] is reported as 4.52 µM (active), the AC50 [6] is reported as 1.6 µM (active) and the AC50 [7] is reported as 2.51 µM (active). For the same compound, the AC50 [10] was 3.8 µM (active).
In the case of `O=C(COc1ccc(Cl)cc1)NNC(=O)c1ccccn1`, the IC50 [11] is reported as > 20 µM (inactive) and the IC50 (cells [12]) is reported as 6.74 µM (active).
For `Cc1ccc(C(=O)CNc2ccccc2C)cc1`, the IC50 [3] was 8.2 µM (active) and the EC50 (Beta-galactosidase) was > 40 µM (inactive).
In the case of `COc1cccc(OC)c1C(=O)NC(C)C12CC3CC(CC(C3)C1)C2` (stereo unspecified), the IC50 [1] is reported as 22.7 µM (active).
For `CC(C)=CCCC1(C)C=Cc2c(O)c3c(c(CC=C(C)C)c2O1)OC12C(=CC4CC1C(C)(C)OC2(C/C=C(/C)C(=O)O)C4=O)C3=O` (stereo unspecified), the AC50 (Cytochrome P450 3A4) was 39.8 µM (inconclusive).
With `Cc1ccc(C(=O)Nc2sc3c(c2C(=O)O)CCCCC3)o1` the IC50 [1] was 28.4 µM (active).
With `O=C(Cn1cc(C(=O)c2cccs2)c2ccccc21)NC1CCCCC1` the IC50 [11] was > 20 µM (inactive).
For `CC(=O)OC1CCC2C3CCc4cc(O)ccc4C3CCC12C` (stereo unspecified), the AC50 (Cytochrome P450 3A4) was 39.8 µM (inconclusive).
For `CCOC(=O)CC(=O)CSc1nc(O)c2sc(=S)n(-c3ccc(OCC)cc3)c2n1`, the IC50 (Leucine aminopeptidase) was 26.4 µM (active) and the IC50 [1] was 21.6 µM (active).
With `Cc1cc(NC(=O)CSc2nc(-c3cccs3)nc3ccccc23)no1` the IC50 (cells [2]) was 53.6 µM (inactive) and the IC50 (Major prion protein) was 2.15 µM (active).
In the case of `COc1ccc(NC(=O)Nc2ccc3c(c2)C(=O)N([C@H](C)CO)C[C@H](C)[C@H](CN(C)Cc2ccncc2)OCCCC[C@H](C)O3)cc1`, the AC50 [9] is reported as 20.1 µM (active), the AC50 [6] is reported as 13 µM (active) and the AC50 [7] is reported as 8.87 µM (active).
In the case of `Cc1ccc(C)c(NC(=S)N/N=C2/CCCCc3ccccc32)c1`, the IC50 [3] is reported as > 40 µM (not active), the EC50 (Streptococcus) is reported as > 150 µM (not active) and the EC50 [13] is reported as 0.956 µM (active). The EC50 (Beta-galactosidase) was > 40 µM (inactive) and the EC50 (Streptokinase A) was > 150 µM (not active).
With `CO[C@H]1CN(C)C(=O)c2cc(NC(=O)Nc3cccc(Cl)c3)ccc2OC[C@H](C)NC[C@H]1C` the AC50 [14] was 4.56 µM (active), the AC50 [15] was 5.09 µM (active) and the AC50 [16] was 3.37 µM (active). For the same compound, the AC50 [17] was 25 µM (active) and the AC50 [18] was 3.03 µM (active).
In the case of `CO[C@@H]1CN(C)C(=O)c2ccc(NC(=O)Nc3ccc(C(F)(F)F)cc3)cc2OC[C@H](C)NC[C@H]1C`, the AC50 [14] is reported as 2.13 µM (active), the AC50 [15] is reported as 2.88 µM (active) and the AC50 [16] is reported as 2.96 µM (active). For the same compound, the AC50 [17] was 32.6 µM (active) and the AC50 [18] was 1.51 µM (active).
In the case of `C[C@@H]1CN([C@H](C)CO)C(=O)c2cccc(NC(=O)c3ccc(-c4nccs4)cc3)c2O[C@H]1CN(C)Cc1ccc2c(c1)OCO2`, the AC50 [14] is reported as 1.19 µM (active), the AC50 [15] is reported as 3.44 µM (active) and the AC50 [16] is reported as 3.63 µM (active). For the same compound, the AC50 [17] was > 100 µM (inactive) and the AC50 [18] was 3.02 µM (active).
In the case of `C/C=C/c1ccc2c(c1)[C@H]1[C@H](CCN1S(=O)(=O)c1ccccc1C)[C@@H](CO)N2`, the AC50 [14] is reported as 1.83 µM (active), the AC50 [15] is reported as 0.942 µM (active) and the AC50 [16] is reported as 1.46 µM (active). The AC50 [18] was 1.18 µM (active).
For `CCCCCC[C@H]1C(=O)O[C@H](C)[C@H](NC(=O)c2cccc(NC=O)c2O)C(=O)O[C@@H](C)[C@@H]1OC(=O)CC(C)C` [ANTIMYCIN A], the AC50 (Cytochrome P450 3A4) was 6.31 µM (inconclusive).
For `NC(=O)c1ccccc1` [BENZAMIDE], the AC50 (Cytochrome P450 3A4) was 0.005 µM (inconclusive).

Source: ChEMBL document CHEMBL1201862, “PubChem BioAssay data set” (2004)
